Here are results for two molecules from patent US10543217B2, “Method of treating frailty” (Organext Research B.V., priority 2009, dated 2020).

Holding throughout (format): cell-based
In assay [1] the test system is human skeletal muscle cells (hSkMC1). The assay is described as follows: Proliferation of human skeletal muscle cells, batch hSkMC1 (resazurin assay). Conditions: for Effect on proliferation (FIG. 3a, in words): individual compounds and all 4 combinations, combinations P<0.001, except 100 nM nandrolone plus 100 nM P<0.05. As for the experimental part: (§1) Two different batches of human skeletal muscle cells or satellite cells (hSkMC1—obtained from a healthy person—and hSkMC2—obtained from a healthy person) were obtained from PromoCell (Heidelberg, Germany) and cultured in flasks according to the instructions by the provider. Cells were harvested and stored in liquid nitrogen until used for the experiments. Cells were not used at passage number higher than 15. For the experiments cells were cultured at 37° C. and 5% CO2 at a density of 3,500-7,000 cells/cm2 in basal medium (PromoCell) plus the addition of 5% charcoal (Sigma-Aldrich) treated fetal bovine serum (FBS) (PAA, Germany) using 24-well plates (Costar) til about 80% confluency.
(§2) Medium and hormones were replaced on day 1, 4 and 7. Proliferation was measured using the resazurin assay (Stern-Straeter et al., 2008). Statistical analysis of the proliferation data was performed with the Student's t-test.
(Alamar Blue is a resazurin reagent that responds to reducing activity.)

Assay [2] relates to vitamin D receptor expression in human skeletal muscle cells (hSkMC1). Description: Vitamin D receptor expression by flow cytometry, hSkMC1 cells. Conditions: compared with hSkMC2, data not shown. The protocol:
as §1
(§3) Androgen and vitamin D receptor staining protocols with the subsequent visualization by flow cytometry methods were derived from the publications of Krishan et al. (2000) and Folgueira et al. (2000). […] All solutions further contained Tween 20 (Sigma Aldrich) as detergent to maintain the permeabilized status of the cells throughout the entire staining experiment. The staining in non-stimulated and stimulated cells were compared by determining the intensity of the staining in the cells as well as the staining in the % of cells. […] The increase in the % of stained cells beyond the setpoint of the marker (at 1% for background staining) was determined with and without hormonal treatment.
On the technique in general: In flow cytometry, cells or beads pass a laser one at a time.

In assay [3] the test system is human skeletal muscle cells (hSkMC2). Description: Proliferation of human skeletal muscle cells, batch hSkMC2 (resazurin assay). As for the experimental part:
as §1, §2

Assay [4] has as its system vitamin D receptor (VD3R) expression in human skeletal muscle cells (hSkMC2). Description: Vitamin D receptor expression by flow cytometry, hSkMC2 cells. The settings on record: 5 days of treatment, flow cytometry (FIG. 2). As for the experimental part: as §1, §3

Turning to `C[C@]12CC[C@H]3[C@@H](CCC4=CC(=O)CC[C@@H]43)[C@@H]1CC[C@@H]2O` [nandrolone], the “Percentage increase (% Δ) in proliferation compared to control” value in assay [1] (100 nM nandrolone, 8 days) was found to be 3%; in assay [1] (1000 nM nandrolone, 8 days), 1%; in assay [3] (100 nM nandrolone, 8 days) it was 4%; in assay [3] (1000 nM nandrolone, 8 days), 1%. In assay [1], the “Effect on proliferation (FIG. 3a, in words)” value is given as “no effect on proliferation”. Further, the “Effect on vitamin D receptor expression” value in assay [2] is on record as “less pronounced”. Further, in assay [4], the “Change in number of cells with positive vitamin D receptor” value is reported as “increases”.
Turning to `C=C1/C(=C\C=C2/CCC[C@]3(C)[C@@H]([C@H](C)CCCC(C)(C)O)CC[C@@H]23)C[C@@H](O)C[C@@H]1O` [dhvit D3, 1α,25-dihydroxyvitamin D3], the “Percentage increase (% Δ) in proliferation compared to control” value was 1% in assay [1] (10 nM dhvit D3, 8 days); −5% in assay [1] (100 nM dhvit D3, 8 days); 1% in assay [3] (10 nM dhvit D3, 8 days); 8% in assay [3] (100 nM dhvit D3, 8 days). Also, the “Effect on proliferation (FIG. 3a, in words)” value in assay [1] was “no effect on proliferation”. In addition, in assay [2], the “Effect on vitamin D receptor expression” value was “less pronounced”. Moreover, in assay [3] (higher concentrations of 1α,25-dihydroxyvitamin D3, 4 combinations vs control P<0.05, except 100 nM nandrolone plus 10 nM P<0.001), the “Effect on proliferation (FIG. 3b, in words)” value is listed as “an increase in proliferation”.
